Reference: US5798370A, “Platelet aggregation inhibitors” (G. D. Searle & Co., priority 1996, dated 1998)
Counter-ions that a name gives are not always drawn.

System: Human Platelet Rich Plasma
Experiment: ADP induced Aggregation of Human Platelet Rich Plasma
Format: cell-based
Conditions: 37° C., half-maximal inhibition, read-out: Human Platelet Agg IC50
Protocol: Healthy aspirin free donors were randomly selected from a pool of volunteers. The harvesting of platelet rich plasma and subsequent ADP induced platelet aggregation assays were performed as described in Zucker, M. B., "Platelet Aggregation Measured by the Photometric Method", Methods in Enzymology 169(1989):117-133. Standard venipuncture techniques using a butterfly allowed the withdrawal of 45 mL of whole blood into a 60 mL syringe containing 5 mL of 3.8% trisodium citrate. Following thorough mixing in the syringe, the anti-coagulated whole blood was transferred to a 50 mL conical polyethylene tube. The blood was centrifuged at room temperature for 12 minutes at 200 xg to sediment non-platelet cells. Platelet rich plasma was removed to a polyethylene tube and stored at room temperature until used. Platelet poor plasma was obtained from a second centrifugation of the remaining blood at 2000 xg for 15 minutes. Platelet counts are typically 300,000 to 500,000 per microliter. Platelet rich plasma (0.45 mL) was aliquoted into siliconized cuvettes and stirred (1100 rpm) at 37° C. for 1 minute prior to adding 50 uL of pre-diluted test compound. […] Aggregation was recorded for 3 minutes in a Payton dual channel aggregometer (Payton Scientific, Buffalo, N.Y.). […] All compounds were tested in duplicate and half-maximal inhibition (IC50) was calculated graphically from the dose response curve.

Row | IC50 [µM] | Structure (SMILES)
1 | 200 | N=C(N)NCCCC(=O)NCCC(=O)NC(CC(=O)O)c1cccnc1 (racemic) [Example 5, (±) β-[[3-[[4-[(aminoiminomethyl)amino]-1-oxobutyl]amino]-1-oxopropyl]amino]-3-pyridinepropanoic acid, bistrifluoroacetate salt]
2 | 20 | N=C(N)NCCCCC(=O)NCC(=O)NC(CC(=O)O)c1cccnc1 (stereo not drawn) [Example 1, β-[[2-[[5-[(aminoiminomethyl)amino]-1-oxopentyl]amino]-1-oxoethyl]amino]-3-pyridinepropanoic acid, bistrifluoroacetate salt]
